Experimental data reported in ChEMBL document CHEMBL1128076, “Synthesis of novel 20-oxo-pregnacalciferol analogs with binding affinity to the progesterone receptor” (1995).

system: T47D; test: Inhibition of breast cancer cell line T47D proliferation; type: functional, Homo sapiens; design: concentration or dose not given beside the values

| SMILES | Inhibition [%] |
| --- | --- |
| C[C@H](CO)C1CCC2/C(=C/C=C3CCCCC3)CCC[C@@]21C (stereo partly drawn) | 13 |
| C[C@H](CO)C1CCC2/C(=C/C=C3CCC4(CC3)OCCO4)CCC[C@@]21C (stereo partly drawn) | 40 |
| CC(=O)C1CCC2/C(=C/C=C3CCCCC3)CCC[C@]12C (stereo partly drawn) | 24 |
| C[C@H](C=O)C1CCC2/C(=C/C=C3CCC4(CC3)OCCO4)CCC[C@@]21C (stereo partly drawn) | 47 |
| C=C1CC[C@H](O)C/C1=C/C=C1\CCC[C@]2(C)C(C(C)=O)CCC12 (stereo partly drawn) | 59 |
| C[C@H](C=O)C1CCC2/C(=C/C=C3CCCCC3)CCC[C@@]21C (stereo partly drawn) | 36 |
| CC(=O)C1CCC2/C(=C/C=C3CCC4(CC3)OCCO4)CCC[C@]12C (stereo partly drawn) | 47 |
| CC(=O)C1CCC2/C(=C/C=C3CCC(=O)CC3)CCC[C@]12C (stereo partly drawn) | 58 |
